From patent US9643968B2, “Fused acridine derivative and pharmaceutical composition, preparation method and use thereof” (Peking University, priority 2014, dated 2017)

Assays:
[1] = system: HCT116 (human colon cancer cell); test: MTT in vitro cytotoxicity, HCT116; format: cell-based; conditions: HCT-116, 72 hr incubation
Description: (§1) Materials and methods: MTT (3-[4,5-dimethylthiazol-2-yl]-diphenyl tetrazolium bromide) method was employed to determine the antiproliferative activity of all the compounds of the Examples and Contrasting Examples in vitro against selected cell lines, including HCT116 (human colon cancer cell), PC-3 (human prostate cancer), HepG2 (human hepatocellular carcinoma), SK-OV-3 (human ovarian adenocarcinoma), MCF-7 (human breast cancer), U87MG (human glioblastoma cell) cell lines.
(§2) Procedure: Human tumor cells of HCT116, PC-3, HepG2, SK-OV-3, MCF-7, and U87MG were in vitro cultured, and collected until the cells grow to the logarithmic phase. The cells were centrifuged for 5 minutes at 1000 rpm, and supernatant was discarded. Subsequently appropriate culture medium was added to suspend the precipitation, and the concentration of cells was adjusted to 3.5˜5.5×10^4/mL. the suspensions of cells were seeded in 96-well microplate at 100 μL per well, and incubated in incubator (37° C., 5% CO2) for 24 hr. The compound to test was added. For the control group, equivalent concentration of DMSO (final concentration 0.5%) was added. For each group, three copy wells were set. After incubated for 72 hr, 20 μL 5 mg/mL of MTT was added into each well, and placed at 37° C. for 3 hr. 150 μL of DMSO was added into each wells, and vibrated the shaker at 37° C. for 5 mins, then measured the absorbance (OD) value at 492 nm/620 nm. The IC50 values were calculated using Prism 5.0 software.

[2] = system: HepG2 (human hepatocellular carcinoma); test: MTT in vitro cytotoxicity, HepG2; format: cell-based; conditions: 72 hr incubation
Description: as §1, §2

[3] = system: SK-OV-3 (human ovarian adenocarcinoma); test: MTT in vitro cytotoxicity, SK-OV-3; format: cell-based; conditions: 72 hr incubation
Description: as §1, §2

[4] = system: U87MG (human glioblastoma cell); test: MTT in vitro cytotoxicity, U87MG; format: cell-based; conditions: U-87 MG, 72 hr incubation
Description: as §1, §2

[5] = system: PC-3 (human prostate cancer); test: MTT in vitro cytotoxicity, PC-3; format: cell-based; conditions: 72 hr incubation, read-out: IC50 PC3
Description: as §1, §2

tumor cells (U87MG) = test: Assay for inhibiting cancer cell clone formation (soft agar); format: cell-based, human; conditions: concentration range from 0.020 to 0.090 μM, 10-14 days
Description: Materials and methods: The tested tumor cells (U87MG) in the logarithmic phase were digested with 0.25% trypsin then percussed gently to the single cell state, and counted the live cells. The cells density was adjusted to 1×10^6[…] with DMEM containing 20% fetal bovine serum, and then diluted gradiently according to the experiment requirement.
Two concentrations (1.2% and 0.7%) of low melting point agarose fluid were prepared with distilled water respectively. A mixture of 1.2% agarose fluid and 2×DMEM medium (contains 2× antibiotics and 20% calf serum) was prepared in 1:1 ratio, then transferred (3 mL) into 6 cm diameter flat dishes, cooled to solidification to furnish the bottom agar which was stored in a CO2 incubator. The cell suspension (0.2 mL) was added to a mixture of 0.7% agarose and 2×DMEM medium which was prepared in 1:1 ratio in sterile tubes, and thoroughly mixed before injection to the precoated dishes to form the double layer agar. After the upper agar being solidified, the dishes were incubated in 37° C. and 5% CO2 for 10-14 days, each experiment was performed in 3-6 times.
The number of clones was counted under an inverted microscope. The clone formation rate was calculated.

CN(C)CCN1C(=O)c2c3ccccc3nc3cccc1c23 [Compound 1a, 2-(2-(dimethylamino)ethyl)pyrrolo[2,3,4-kl]acridin-1-(2H)-one]
IC50 [1]: 7410 nM | IC50 [2]: 6350 nM | IC50 [3]: 14.8 µM | IC50 [4]: 582 nM | IC50 [5]: 14.5 µM

O=C1c2c3ccccc3nc3cccc(c23)N1CCCN1CCOCC1 [Compound 1b, 2-(3-morpholinopropyl)pyrrolo[2,3,4-kl]acridin-1-(2H)-one]
IC50 [1]: 1870 nM | IC50 [2]: 2780 nM | IC50 [3]: 8.43 µM | IC50 [4]: 1780 nM | IC50 [5]: 3.01 µM

O=C1c2c3ccccc3nc3cccc(c23)N1CCN1CCCCC1 [Compound 1f, 2-(2-(piperidin-1-yl)ethyl)pyrrolo[2,3,4-kl]acridin-1-(2H)-one]
IC50 [1]: 1130 nM | IC50 [2]: 2270 nM | IC50 [3]: 3.65 µM | IC50 [4]: 3930 nM | IC50 [5]: 3.19 µM

O=C1c2c3ccccc3nc3cccc(c23)N1CCN1CCCC1 [Compound 1g, 2-(2-(pyrrolidin-1-yl)ethyl)pyrrolo[2,3,4-kl]acridin-1-(2H)-one]
IC50 [1]: 946 nM | IC50 [2]: 2160 nM | IC50 [3]: 6.52 µM | IC50 [5]: 3.99 µM

O=C1c2c3ccccc3nc3cccc(c23)N1CCCN1CCCC1 [Compound 1h, 2-(3-(pyrrolidin-1-yl)propyl)pyrrolo[2,3,4-kl]acridin-1-(2H)-one]
IC50 [1]: 1800 nM | IC50 [2]: 8150 nM | IC50 [3]: 11.9 µM | IC50 [4]: 10200 nM | IC50 [5]: 11.9 µM

Cc1ccc2nc3cccc4c3c(c2c1)C(=O)N4CCN(C)C [Compound 2a, 2-(2-(dimethylamino)ethyl)-9-methylpyrrolo[2,3,4-kl]acridin-1-(2H)-one]
IC50 [1]: 1050 nM | IC50 [2]: 2820 nM | IC50 [4]: 2050 nM | IC50 [5]: 3.52 µM

CN(C)CCN1C(=O)c2c3cc(Cl)ccc3nc3cccc1c23 [Compound 2b, 9-chloro-2-(2-(dimethylamino)ethyl)pyrrolo[2,3,4-kl]acridin-1-(2H)-one]
IC50 [1]: 859 nM | IC50 [2]: 1080 nM | IC50 [4]: 1450 nM | inhibition of glioma cell clone formation (tumor cells (U87MG)): significantly inhibited | IC50 [5]: 1.22 µM

CN(C)CCN1C(=O)c2c3cccc(F)c3nc3cccc1c23 [Compound 2d, 2-(2-(dimethylamino)ethyl)-7-fluoropyrrolo[2,3,4-kl]acridin-1-(2H)-one]
IC50 [1]: 951 nM | IC50 [2]: 1410 nM | IC50 [4]: 1700 nM | inhibition of glioma cell clone formation (tumor cells (U87MG)): significantly inhibited | IC50 [5]: 1.85 µM

CN(C)CCN1C(=O)c2c3ccccc3nc3c([N+](=O)[O-])ccc1c23 [Compound 2e]
IC50 [1]: 1340 nM | IC50 [2]: 1860 nM | IC50 [4]: 1740 nM | IC50 [5]: 0.998 µM

Cc1ccc2nc3cccc4c3c(c2c1)C(=O)N4CCCN(C)C [Compound 3a, 2-(3-(dimethylamino)propyl)-9-methylpyrrolo[2,3,4-kl]acridin-1-(2H)-one]
IC50 [1]: 1380 nM | IC50 [2]: 2850 nM | IC50 [4]: 2190 nM | IC50 [5]: 8.21 µM

CN(C)CCCN1C(=O)c2c3cc(Cl)ccc3nc3cccc1c23 [Compound 3b, 9-chloro-2-(3-(dimethylamino)propyl)pyrrolo[2,3,4-kl]acridin-1-(2H)-one]
IC50 [1]: 1320 nM | IC50 [2]: 1470 nM | IC50 [4]: 1580 nM | IC50 [5]: 2.33 µM

CN(C)CCCN1C(=O)c2c3cc(Cl)ccc3nc3cccc1c23.O=C(O)/C=C/C(=O)O [Compound 3b′, 9-chloro-2-(3-(dimethylamino)propyl)pyrrolo[2,3,4-kl]acridin-1-(2H)-one fumarate]
inhibition of glioma cell clone formation (tumor cells (U87MG)): significantly inhibited

COc1ccc2nc3cccc4c3c(c2c1)C(=O)N4CCCN(C)C [Compound 3c, 2-(3-(dimethylamino)propyl)-9-methoxypyrrolo[2,3,4-kl]acridin-1-(2H)-one]
IC50 [1]: 1110 nM | IC50 [2]: 1830 nM | IC50 [4]: 1850 nM | IC50 [5]: 3.47 µM

CN(C)CCCN1C(=O)c2c3cccc(F)c3nc3cccc1c23 [Compound 3d, 2-(3-(dimethylamino)propyl)-7-fluoropyrrolo[2,3,4-kl]acridin-1-(2H)-one]
IC50 [1]: 1490 nM | IC50 [2]: 2100 nM | IC50 [4]: 2360 nM | IC50 [5]: 4.99 µM

Cc1ccc2nc3cccc4c3c(c2c1)C(=O)N4CCN1CCCCC1 [Compound 4a, 9-methyl-2-(2-(piperidin-1-yl)ethyl)pyrrolo[2,3,4-kl]acridin-1-(2H)-one]
IC50 [1]: 1420 nM | IC50 [2]: 2570 nM | IC50 [4]: 1330 nM | IC50 [5]: 4.13 µM

O=C1c2c3cc(Cl)ccc3nc3cccc(c23)N1CCN1CCCCC1 [Compound 4b, 9-chloro-2-(2-(piperidin-1-yl)ethyl)pyrrolo[2,3,4-kl]acridin-1-(2H)-one]
IC50 [1]: 1380 nM | IC50 [2]: 2250 nM | IC50 [4]: 1890 nM | IC50 [5]: 2.88 µM

COc1ccc2nc3cccc4c3c(c2c1)C(=O)N4CCN1CCCCC1 [Compound 4c, 9-methoxy-2-(2-(piperidin-1-yl)ethyl)pyrrolo[2,3,4-kl]acridin-1-(2H)-one]
IC50 [1]: 284 nM | IC50 [2]: 1500 nM | IC50 [4]: 497 nM | IC50 [5]: 1.4 µM

O=C1c2c3cccc(F)c3nc3cccc(c23)N1CCN1CCCCC1 [Compound 4d, 7-fluoro-2-(2-(piperidin-1-yl)ethyl)pyrrolo[2,3,4-kl]acridin-1-(2H)-one]
IC50 [1]: 1210 nM | IC50 [2]: 3580 nM | IC50 [4]: 1780 nM | IC50 [5]: 4.7 µM

Cc1ccc2nc3c(C)ccc4c3c(c2c1)C(=O)N4CCN(C)C [Compound 5a, 2-(2-(dimethylamino)ethyl)-5,9-dimethylpyrrolo[2,3,4-kl]-acridin-1-(2H)-one]
IC50 [1]: 1060 nM | IC50 [2]: 1940 nM | IC50 [4]: 1480 nM | inhibition of glioma cell clone formation (tumor cells (U87MG)): significantly inhibited | IC50 [5]: 2.9 µM

Cc1ccc2c3c(c4cc(Cl)ccc4nc13)C(=O)N2CCN(C)C [Compound 5b, 9-chloro-2-(2-(dimethylamino)ethyl)-5-methylpyrrolo[2,3,4-kl]-acridin-1-(2H)-one]
IC50 [1]: 930 nM | IC50 [2]: 1170 nM | IC50 [4]: 1270 nM | inhibition of glioma cell clone formation (tumor cells (U87MG)): significantly inhibited | IC50 [5]: 2.24 µM

COc1ccc2nc3c(C)ccc4c3c(c2c1)C(=O)N4CCN(C)C [Compound 5c, 2-(2-(dimethylamino)ethyl)-9-methoxy-5-methylpyrrolo[2,3,4-kl]-acridin-1-(2H)-one]
IC50 [1]: 165 nM | IC50 [2]: 232 nM | IC50 [4]: 269 nM | IC50 [5]: 0.689 µM

Cc1ccc2c3c(c4cccc(F)c4nc13)C(=O)N2CCN(C)C [Compound 5d, 2-(2-(dimethylamino)ethyl)-7-fluoro-5-methylpyrrolo[2,3,4-kl]-acridin-1-(2H)-one]
IC50 [1]: 1000 nM | IC50 [2]: 1720 nM | IC50 [4]: 1420 nM | inhibition of glioma cell clone formation (tumor cells (U87MG)): significantly inhibited | IC50 [5]: 2.51 µM

Cc1ccc2c3c(c4ccccc4nc13)C(=O)N2CCN(C)C [Compound 5e, 2-(2-(dimethylamino)ethyl)-5-methylpyrrolo[2,3,4-kl]-acridin-1-(2H)-one]
IC50 [1]: 767 nM | IC50 [2]: 1280 nM | IC50 [4]: 959 nM | inhibition of glioma cell clone formation (tumor cells (U87MG)): significantly inhibited | IC50 [5]: 1.66 µM

CCCCN1C(=O)c2c3ccccc3nc3cccc1c23 [Compound 6a, 2-butylpyrrolo[2,3,4-kl]acridin-1-(2H)-one, reference compound]
IC50 [1]: > 50000 nM | IC50 [2]: > 50000 nM | IC50 [3]: > 50 µM | IC50 [4]: > 50000 nM | IC50 [5]: > 50 µM
